According to the NIST ThermoML archive (doi:10.1021/je049973v):

Settings: Liquid; for mass density: Vibrating tube method; for speed of sound: Pulse-echo method

CCCCCCCCCCCCCCCCCc1ccccc1 [heptadecane, 1-phenyl-]
Settings	mass density [kg/m3]	speed of sound [m/s]
323.15 K, 20000 kPa	845.93	–
323.15 K, 25000 kPa	848.7	–
323.15 K, 30000 kPa	851.34	1490.8
323.15 K, 35000 kPa	853.89	–
323.15 K, 40000 kPa	856.43	1531.1
323.15 K, 45000 kPa	858.84	–
323.15 K, 50000 kPa	861.35	1569.2
323.15 K, 55000 kPa	863.55	–
323.15 K, 60000 kPa	865.8	1605.8
323.15 K, 70000 kPa	–	1640.7
323.15 K, 80000 kPa	–	1673.9
323.15 K, 90000 kPa	–	1705.8
323.15 K, 100000 kPa	–	1736.6
323.15 K, 110000 kPa	–	1766.3
323.15 K, 120000 kPa	–	1794.9
323.15 K, 130000 kPa	–	1822.8
323.15 K, 140000 kPa	–	1849.3
323.15 K, 150000 kPa	–	1875.5
333.15 K, 100 kPa	827.59	1319.9
333.15 K, 5000 kPa	830.84	–
333.15 K, 10000 kPa	833.94	1370.2
333.15 K, 15000 kPa	837.13	–
333.15 K, 20000 kPa	839.97	1417.3
333.15 K, 25000 kPa	842.84	–
333.15 K, 30000 kPa	845.52	1461.4
333.15 K, 35000 kPa	848.14	–
333.15 K, 40000 kPa	850.62	1502.9
333.15 K, 45000 kPa	853.3	–
333.15 K, 50000 kPa	855.69	1542.1
333.15 K, 55000 kPa	858	–
333.15 K, 60000 kPa	860.35	1579.2
333.15 K, 70000 kPa	–	1614.6
333.15 K, 80000 kPa	–	1648.7
333.15 K, 90000 kPa	–	1681.3
333.15 K, 100000 kPa	–	1712.2
333.15 K, 110000 kPa	–	1742.3
333.15 K, 120000 kPa	–	1771.7
333.15 K, 130000 kPa	–	1799.8
333.15 K, 140000 kPa	–	1826.9
333.15 K, 150000 kPa	–	1853.6
343.15 K, 100 kPa	820.95	1287
343.15 K, 5000 kPa	824.32	–
343.15 K, 10000 kPa	827.71	1338.7
